Experimental findings from patent publication US6649144B1, “Method for detecting and killing epithelial cancer cells” (Zila, Inc., priority 2001, dated 2003) are described below.

The assay concerns carcinoma cells. Kind of assay: Uptake and retention of mitochondrial marking agents in living carcinoma cells. Type of assay: cell-based. Particulars: 5 minutes incubation at 37° C., rinsed twice with 1% acetic acid, 2-butanol extraction, spectrophotometry. The method, then:
Different concentrations of the various cationic marking agents, at 100, 50, 10 and 1 μg/ml are prepared in RPMI medium complete with 20% fetal calf serum, 1 mM glutamine, hydrocortisone, insulin, transferrin, estradiol, selenium and growth hormone.
The carcinoma cells are incubated at 37° C. in tissue culture incubators with 5% CO2 and 95% relative humidity, for 5 minutes with each agent and concentration there and then rinsed twice using 2 minute incubations with 1% acetic acid. After incubation and rinsing, the cells are harvested, at 30 min., 1 hour, 2 hours, 4 hours and 8 hours. The cells are then extracted with 2-butanol and analyzed by spectrophotometry for quantitation of the marking agent.
The saturation concentration for toluidine blue O occurs at concentrations of 10 μg/ml and above. The saturation concentrations for the other marking agents are similarly determined. The remaining experiments are conducted with a concentration of 10 μg/ml for toluidine blue O and at the saturation concentrations for the other marking agents so-determined, unless stated otherwise.

In turn, `Cc1cc2nc3ccc(N(C)C)cc3[s+]c2cc1N.[Cl-]` [toluidine blue O] displayed a saturation concentration not below 10 µg/mL.
